Read-outs that look alike come from different tables or passages of the source.
Experiments:
[1] = test system: A549; assay: MTT test, overall cell growth; type: cell-based, human; conditions: 72 hours of incubation
Method: (§1) In order to characterize the in vitro activities of the compounds according to the invention, MTT tests were carried out. The MTT test, which is a well-known test in the art, is an indirect technique that rapidly measures, i.e. within 5 days, the effect of a given product on the overall cell growth. This test measures the number of metabolically active living cells that are able to transform the MTT product (3-(4,5-dimethylthiazol-2-yl)-2,5 diphenyl tetrazolium bromide), having a yellowish color, to the blue product formazan dye by mitochondrial reduction. The amount of formazan obtained at the end of the experiment is measured with a spectrophotometer and is directly proportional to the number of living cells. Determination of the optical density enables a quantitative measurement of the effect of the investigated compounds as compared to the control condition (untreated cells) and to compare it to other reference compound. In the following examples different compounds according to the invention were tested and compared to the reference compound being uscharin.
(§2) Six human cancer cell lines, described in Table C, were tested in the presence of compounds according to the invention. These cell lines covered four histological cancer types, being Glioma, colon, lung and bladder cancer. The cells were allowed to grow in 96-well micro wells with a flat bottom with an amount of 100 μl of cell suspension per well in reason to 4000 cells/well depending on cell type. Each cell line was seeded in its own cell culture medium (Table C).
(§3) After a 24-hour period of incubation at 37° C., the culture medium is replaced by 100 μl of fresh medium in which the compound to be tested has been dissolved at different required concentrations. Different compounds were tested at 10^−9 M, 5×10^−9 M, 10^−8 M, 5×10^−8 M, 10^−7 M, 5×10^−7 M, 10^−6 M, 5×10^−6 M et 10^−5 M. Each experimental condition is carried out in hexaplicate. The compounds tested are 2″ oxo-voruscharin, and compounds B, C, D, E, H and I represented in Table B above.
(§4) After 72 hours of incubation at 37° C. with the compound (experimental conditions) or without the compound (control condition), the medium was replaced by 100 μl MTT at the concentration of 1 mg/ml dissolved in RPMI. The micro wells were subsequently incubated during 3 hours at 37° C. and centrifuged at 400 g during 10 minutes. The MTT was removed and formazan crystals formed, were dissolved in 100 μl DMSO. The micro wells were shaken for 5 minutes and read on a spectrophotometer at the wavelengths of 570 nm corresponding to the maximum formazan absorbance wavelength, and of 630 nm, which is the background noise wavelength.
(§5) For each experimental condition, the mean OD associated with the SEM (standard error of the mean) for each condition (6 wells) was calculated. The percentage of remaining living cells in comparison with the control was calculated. Results of these experiments are represented in FIGS. 2 to 8.

[2] = test system: HCT-15; assay: MTT test, overall cell growth; type: cell-based, human
Method: as §1, §2, §3, §4, §5

[3] = test system: Hs683; assay: MTT test, overall cell growth; type: cell-based, human
Method: as §1, §2, §3, §4, §5

[4] = test system: J82; assay: MTT test, overall cell growth; type: cell-based, human
Method: as §1, §2, §3, §4, §5

[5] = test system: LoVo; assay: MTT test, overall cell growth; type: cell-based, human; conditions: 72 hours of incubation
Method: as §1, §2, §3, §4, §5

[6] = test system: U-373 MG; assay: MTT test, overall cell growth; type: cell-based, human; conditions: U-373, MTT, 72 hours of incubation
Method: as §1, §2, §3, §4, §5

[7] = Maximum Tolerated Dose in healthy mice; type: in vivo; conditions: single administration in mice, healthy animals, 14 days post-injection
Method: The Maximum Tolerated Dose (MTD) of a given drug is defined as the maximum amount of a drug which can be administered acutely (i.e. in one i.p., i.v., s.c. or per os single dose) to healthy animals, i.e. animals not grafted with tumors. The survival times and weights of the animals are recorded up to 14 days post-injection. Five different doses of each drug are used for the determination of the MTD index. When the MTD index is higher than 160 mg/kg (i.p. administration) the drug is usually considered to be non-toxic, and the highest dose administered to tumor-bearing mice is MTD/2=80 mg/kg. Each experimental group was composed of 3 mice for the determination of the MTD index.

[8] = test system: HCT-15 human cancer cells; assay: Cell cycle kinetics by flow cytometry (propidium iodide); type: cell-based; parameters: key to Effect on cell cycle kinetics, G0/G1 / Effect on cell cycle kinetics, S / Effect on cell cycle kinetics, G2/M: n.s. means no significant; ** means highly significant; *** very highly significant
Method: (§6) Cell lines were seeded in flasks (25 cm^2 area) containing 7 ml of culture medium. After 48 hours incubation at 37° C. the cell culture medium was replaced by a fresh medium in which the substance to be tested had been dissolved at the different concentrations required. Uscharin and 2″ oxo-voruscharin were tested at concentrations, which kill 50% and 30% of the cell population, represented by the IC50 and IC30 values, respectively. After 24 or 72 hours of treatment the cells were harvested in suspension, washed in Phosphate Buffer Saline (PBS) at 4° C. and permeabilized with 70% ethanol (at 4° C.) overnight at −20° C. The cells were then washed with PBS and incubated with propidium iodide solution (80 μg/ml) for 30 minutes at 37° C. and afterward at 4° C. overnight. Ribonuclease A (3% V/V) was added to the PI solution to break doubled-stranded RNA. The portrait of the cell cycle was established for each sample. Software incorporated into the flow cytometer was used to define precisely the percentage of cells in the different cell cycle phases. Each cell cycle phase was reported in terms of peak surface and calculated as a percentage. The surface of the entire cell cycle was 100%. Each experiment was carried out 3 times. The mean percentage of each different phase and the standard error of the related mean were calculated. Each cell cycle phase of a given condition was compared with the same cell cycle phase of control. The non-treated cells constituted control.
(§7) Uscharin and 2″ oxo-voruscharin are highly toxic to human tumor cell lines. The concentrations used in the flow cytometry experiments were chosen in accordance with the MTT results (example 2). Three human cancer cell lines, Hs683, J82, and HCT-15 were tested and doses that killed 30 and 50 percent of the cells were applied to investigate whether uscharin and 2″ oxo-voruscharin promoted an accumulation in one of the cell cycle phases when the cell cultures were treated for 24 or 72 hours with increasing concentrations of the compounds. The IC50 and IC30 values for uscharin and 2″ oxo-voruscharin corresponding to the three tested cell lines are represented in Table E.

[9] = test system: Hs683 human cancer cells; assay: as above; type: cell-based; parameters: key to Effect on cell cycle kinetics, G0/G1 / Effect on cell cycle kinetics, S / Effect on cell cycle kinetics, G2/M: n.s. means no significant; ** means highly significant; *** very highly significant
Method: as §6, §7

[10] = test system: J82 human cancer cells; assay: as above; type: cell-based; parameters: key to Effect on cell cycle kinetics, G0/G1 / Effect on cell cycle kinetics, S / Effect on cell cycle kinetics, G2/M: n.s. means no significant; ** means highly significant; *** very highly significant
Method: as §6, §7

[11] = HCT-15, MTT, 72 hours of incubation, read-out: IC50 value
[12] = Hs683, MTT, 72 hours of incubation, read-out: IC50 value
[13] = J82, MTT, 72 hours of incubation, read-out: IC50 value

SMILES: CC1CC2(NC(CC(=O)c3ccccc3)CS2)C2(O)OC3CC4(CO)C(CCC5C4CCC4(C)C(C6=CC(=O)OC6)CCC54O)CC3OC2O1 (single isomer, unassigned) [Compound H]
- IC50 [1]: 1 to 5 nM
- IC50 [2, 11]: 10 to 50 nM
- IC50 [3, 12]: 1 to 5 nM
- IC50 [4, 13]: 1000 to 5000 nM
- IC50 [5]: 10 to 50 nM
- IC50 [6]: 10 to 50 nM
- MTD index [7]: 80 mg/kg

SMILES: CC1CC2(NC(CC(=O)c3ccccc3)CS2)C2(O)OC3CC4(CO)C(CCC5C4CCC4(C)C(C6=CC(=O)OC6)CCC54O)CC3OC2O1 (single isomer, unassigned) [Compound I]
- IC50 [1]: 1 to 5 nM
- IC50 [2, 11]: 10 to 50 nM
- IC50 [3, 12]: 1 to 5 nM
- IC50 [4, 13]: 1000 to 5000 nM
- IC50 [5]: 10 to 50 nM
- IC50 [6]: 10 to 50 nM
- MTD index [7]: 80 mg/kg

SMILES: CC(=O)OCC12CC3OC4(O)C(OC(C)CC45NC(=O)CS5)OC3CC1CCC1C2CCC2(C)C(C3=CC(=O)OC3)CCC12O (centres unmarked) [Compound C]
- IC50 [1]: 1000 to 5000 nM
- IC50 [2, 11]: 1000 to 5000 nM
- IC50 [3, 12]: 1000 to 5000 nM
- IC50 [4, 13]: > 10000 nM
- IC50 [5]: 1000 to 5000 nM
- IC50 [6]: 1000 to 5000 nM
- MTD index [7]: > 40 mg/kg

SMILES: CC1CC2(N=CCS2)C2(O)OC3CC4(CO)C(CCC5C4CCC4(C)C(C6=CC(=O)OC6)CCC54O)CC3OC2O1 (centres unmarked) [Compound D]
- IC50 [1]: 10 to 50 nM
- IC50 [2, 11]: 10 to 50 nM
- IC50 [3, 12]: 1 to 5 nM
- IC50 [4, 13]: 5000 to 10000 nM
- IC50 [5]: 1 to 5 nM
- IC50 [6]: 10 to 50 nM
- MTD index [7]: 10 mg/kg

SMILES: CC(=O)OCC12CC3OC4(O)C(OC(C)CC45N=CCS5)OC3CC1CCC1C2CCC2(C)C(C3=CC(=O)OC3)CCC12O (centres unmarked) [Compound E]
- IC50 [1]: 1000 to 5000 nM
- IC50 [2, 11]: 1000 to 5000 nM
- IC50 [3, 12]: 1000 to 5000 nM
- IC50 [4, 13]: > 10000 nM
- IC50 [5]: 1000 to 5000 nM
- IC50 [6]: 1000 to 5000 nM

SMILES: C[C@@H]1CC2(N=CCS2)C2(O)O[C@@H]3C[C@]4(C=O)C5CC[C@]6(C)[C@@H](C7=CC(=O)OC7)CC[C@]6(O)[C@@H]5CC[C@H]4C[C@H]3O[C@@H]2O1 (some centres unmarked) [uscharin]
- IC50 ([1]; Homo sapiens): 10 to 50 nM
- IC30 ([2]; HCT-15, Table E, concentration which kills 30% of the cell population): 8.5 nM
- IC50 ([2]; Homo sapiens, HCT-15, MTT, 72 hours of incubation, read-out: IC50 value): 10 to 50 nM
- IC50 ([2]; Homo sapiens, HCT-15, Table E, concentration used for flow cytometry, chosen in accordance with MTT results, read-out: IC50): 43 nM
- IC50 ([3]; Homo sapiens, Hs 683, Hs683, MTT, 72 hours of incubation, read-out: IC50 value): 1 to 5 nM
- IC50 ([3]; Homo sapiens, Hs 683, Hs683, Table E, concentration used for flow cytometry, chosen in accordance with MTT results, read-out: IC50): 170 nM
- IC30 ([3]; Hs683, Table E, concentration which kills 30% of the cell population): 43 nM
- IC50 ([4]; Homo sapiens, J82, MTT, 72 hours of incubation, read-out: IC50 value): 5000 to 10000 nM
- IC50 ([4]; Homo sapiens, J82, Table E, concentration used for flow cytometry, chosen in accordance with MTT results, read-out: IC50): 4300 nM
- IC30 ([4]; J82, Table E, concentration which kills 30% of the cell population): 1700 nM
- IC50 ([5]; Homo sapiens): 5 to 10 nM
- IC50 ([6]; Homo sapiens, U373 MG): 10 to 50 nM
- Effect on cell cycle kinetics, G0/G1 ([8]; HCT-15, 24 h): n.s.
- Effect on cell cycle kinetics, G2/M ([8]; HCT-15, 24 h): n.s.
- Effect on cell cycle kinetics, S ([8]; HCT-15, 24 h): n.s.
- Effect on cell cycle kinetics, G0/G1 ([8]; HCT-15, 72 h): n.s.
- Effect on cell cycle kinetics, G2/M ([8]; HCT-15, 72 h): n.s.
- Effect on cell cycle kinetics, S ([8]; HCT-15, 72 h): **
- cell cycle, S-phase ([8]; HCT-15, 72 hours, highest concentration tested (4.3×10^−8 M uscharin, 1.2×10^−8 M 2″oxo-voruscharin)): accumulation in S-phase
- cell cycle, S-phase ([9]; Hs683, 1.7×10^−7 M for 24 and 72 hours, statistically significant): accumulation of cells in S-phase
- cell cycle, G2/M-phase ([9]; Hs683, 1.7×10^−7 M for 24 hours): significant accumulation in G2/M-phase
- Effect on cell cycle kinetics, G0/G1 ([9]; Hs683, 24 h): n.s.
- Effect on cell cycle kinetics, G2/M ([9]; Hs683, 24 h): ***
- Effect on cell cycle kinetics, S ([9]; Hs683, 24 h): ***
- Effect on cell cycle kinetics, G0/G1 ([9]; Hs683, 72 h): n.s.
- Effect on cell cycle kinetics, G2/M ([9]; Hs683, 72 h): n.s.
- Effect on cell cycle kinetics, S ([9]; Hs683, 72 h): ***
- Effect on cell cycle kinetics, G0/G1 ([10]; J82, 24 h): n.s.
- Effect on cell cycle kinetics, G2/M ([10]; J82, 24 h): n.s.
- Effect on cell cycle kinetics, S ([10]; J82, 24 h): ***
- Effect on cell cycle kinetics, G0/G1 ([10]; J82, 72 h): n.s.
- Effect on cell cycle kinetics, G2/M ([10]; J82, 72 h): n.s.
- Effect on cell cycle kinetics, S ([10]; J82, 72 h): ***
- cell cycle, S-population ([10]; J82, independent of the concentrations applied or the timing of treatment): significant increase in the S-population

Reference: patent publication US7981875B2, “2″ oxo-voruscharin and derivatives thereof” (priority 2002, dated 2011)
